In PubChem BioAssay (NCI):
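A five-concentration, 48-hour dose response in 96-well plates underlies each endpoint, interpolated linearly between surrounding concentrations. TGI is the concentration that stops growth completely.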

Experiments:
Assay in all cases: growth of human tumour cells (NCI), 48 h
[1] = system: 786-0 renal
[2] = system: A498 renal
[3] = system: A549 NSCLC
[4] = system: ACHN renal
[5] = system: BT-549 breast
[6] = system: CAKI-1 renal
[7] = system: CCRF-CEM leukemia
[8] = system: COLO 205 colon
[9] = system: DU-145 prostate
[10] = system: EKVX NSCLC
[11] = system: HCC-2998 colon
[12] = system: HCT-116 colon
[13] = system: HCT-15 colon
[14] = system: HL-60(TB) leukemia
[15] = system: HOP-62 NSCLC
[16] = system: HOP-92 NSCLC
[17] = system: HS 578T breast
[18] = system: HT29 colon
[19] = system: IGROV1 ovarian
[20] = system: K-562 leukemia
[21] = system: KM12 colon
[22] = system: LOX IMVI melanoma
[23] = system: M14 melanoma
[24] = system: MALME-3M melanoma
[25] = system: MCF7 breast
[26] = system: MDA-MB-231 breast
[27] = system: MDA-MB-435
[28] = system: MDA-N
[29] = system: MOLT-4 leukemia
[30] = system: NCI-H226 lung
[31] = system: NCI-H23 lung
[32] = system: NCI-H460 lung
[33] = system: NCI-H522 lung
[34] = system: NCI/ADR-RES ovarian
[35] = system: OVCAR-3 ovarian
[36] = system: OVCAR-4 ovarian
[37] = system: OVCAR-5 ovarian
[38] = system: OVCAR-8 ovarian
[39] = system: PC-3 prostate
[40] = system: RPMI-8226 leukemia
[41] = system: RXF 393 renal
[42] = system: SF-268 CNS
[43] = system: SF-295 CNS
[44] = system: SF-539 CNS
[45] = system: SK-MEL-2 melanoma
[46] = system: SK-MEL-28 melanoma
[47] = system: SK-MEL-5 melanoma
[48] = system: SK-OV-3 ovarian
[49] = system: SN12C renal
[50] = system: SNB-19 CNS
[51] = system: SNB-75 CNS
[52] = system: SR leukemia
[53] = system: SW-620 colon
[54] = system: T-47D breast
[55] = system: TK-10 renal
[56] = system: U251 CNS
[57] = system: UACC-257 melanoma
[58] = system: UACC-62 melanoma
[59] = system: UO-31 renal
[60] = system: KM20L2 colon
[61] = system: DLD-1 colon
[62] = system: DMS 114 small cell lung
[63] = system: LXFL 529 NSCLC
[64] = system: SNB-78 CNS
[65] = system: XF 498 CNS

SMILES: c1ccc(-c2cc3nc4ccccc4nc3cc(-c3ccccc3)[nH][nH]2)cc1
- TGI [1]: > 100 µM
- TGI [2]: 55.7 µM
- TGI [3]: > 100 µM
- TGI [4]: 77.9 µM
- TGI [5]: > 100 µM
- TGI [6]: > 100 µM
- TGI [7]: > 100 µM
- TGI [8]: > 100 µM
- TGI [9]: > 100 µM
- TGI [10]: > 100 µM
- TGI [11]: > 100 µM
- TGI [12]: > 100 µM
- TGI [13]: > 100 µM
- TGI [14]: 53.5 µM
- TGI [15]: 66.9 µM
- TGI [16]: > 100 µM
- TGI [17]: > 100 µM
- TGI [18]: > 100 µM
- TGI [19]: > 100 µM
- TGI [20]: > 100 µM
- TGI [21]: > 100 µM
- TGI [22]: > 100 µM
- TGI [23]: > 100 µM
- TGI [24]: > 100 µM
- TGI [25]: > 100 µM
- TGI [26]: > 100 µM
- TGI [27]: > 100 µM
- TGI [28]: > 100 µM
- TGI [29]: > 100 µM
- TGI [30]: > 100 µM
- TGI [31]: > 100 µM
- TGI [32]: > 100 µM
- TGI [33]: > 100 µM
- TGI [34]: > 100 µM
- TGI [35]: 64.7 µM
- TGI [36]: > 100 µM
- TGI [37]: > 100 µM
- TGI [38]: > 100 µM
- TGI [39]: > 100 µM
- TGI [40]: > 100 µM
- TGI [41]: > 100 µM
- TGI [42]: > 100 µM
- TGI [43]: 88.7 µM
- TGI [44]: > 100 µM
- TGI [45]: > 100 µM
- TGI [46]: > 100 µM
- TGI [47]: > 100 µM
- TGI [48]: 39.5 µM
- TGI [49]: > 100 µM
- TGI [50]: > 100 µM
- TGI [51]: 99.1 µM
- TGI [52]: > 100 µM
- TGI [53]: > 100 µM
- TGI [54]: > 100 µM
- TGI [55]: 51.8 µM
- TGI [56]: > 100 µM
- TGI [57]: > 100 µM
- TGI [58]: > 100 µM
- TGI [59]: > 100 µM

SMILES: COc1ccc(COCC[C@H](C)OC2OC(CO[Si](C)(C)C(C)(C)C)C(O)C(O)C2O)cc1 (stereo not given in full)
- TGI [1]: > 100 µM
- TGI [2]: > 100 µM
- TGI [3]: > 100 µM
- TGI [4]: > 100 µM
- TGI [5]: > 100 µM
- TGI [6]: > 100 µM
- TGI [7]: > 100 µM
- TGI [8]: > 100 µM
- TGI [9]: > 100 µM
- TGI [10]: > 100 µM
- TGI [11]: > 100 µM
- TGI [12]: > 100 µM
- TGI [13]: > 100 µM
- TGI [14]: > 100 µM
- TGI [15]: > 100 µM
- TGI [16]: > 100 µM
- TGI [17]: > 100 µM
- TGI [18]: > 100 µM
- TGI [19]: > 100 µM
- TGI [20]: > 100 µM
- TGI [21]: > 100 µM
- TGI [22]: > 100 µM
- TGI [23]: > 100 µM
- TGI [24]: > 100 µM
- TGI [25]: > 100 µM
- TGI [26]: > 100 µM
- TGI [27]: > 100 µM
- TGI [28]: > 100 µM
- TGI [29]: > 100 µM
- TGI [30]: > 100 µM
- TGI [31]: > 100 µM
- TGI [32]: > 100 µM
- TGI [33]: > 100 µM
- TGI [34]: > 100 µM
- TGI [35]: > 100 µM
- TGI [36]: > 100 µM
- TGI [37]: > 100 µM
- TGI [38]: > 100 µM
- TGI [39]: > 100 µM
- TGI [40]: > 100 µM
- TGI [41]: > 100 µM
- TGI [42]: > 100 µM
- TGI [43]: > 100 µM
- TGI [44]: > 100 µM
- TGI [45]: > 100 µM
- TGI [46]: > 100 µM
- TGI [47]: > 100 µM
- TGI [48]: > 100 µM
- TGI [49]: > 100 µM
- TGI [50]: > 100 µM
- TGI [51]: > 100 µM
- TGI [52]: > 100 µM
- TGI [53]: > 100 µM
- TGI [54]: > 100 µM
- TGI [55]: > 100 µM
- TGI [56]: > 100 µM
- TGI [57]: > 100 µM
- TGI [58]: > 100 µM
- TGI [59]: > 100 µM

SMILES: CCCCCC(=O)OC[n+]1ccc2c(C)c3[nH]c4ccc(OC)cc4c3c(C)c2c1
- TGI [1]: 1.51 µM
- TGI [2]: 2.17 µM
- TGI [3]: 13.7 µM
- TGI [4]: 4.78 µM
- TGI [6]: > 23 µM
- TGI [9]: 3.19 µM
- TGI [15]: 2.28 µM
- TGI [19]: 3.71 µM
- TGI [60]: > 100 µM
- TGI [24]: > 63.6 µM
- TGI [25]: 1.96 µM
- TGI [26]: 1.83 µM
- TGI [29]: > 100 µM
- TGI [30]: 31 µM
- TGI [32]: 1.04 µM
- TGI [33]: > 100 µM
- TGI [35]: > 100 µM
- TGI [37]: 2.24 µM
- TGI [42]: > 100 µM
- TGI [43]: 1.72 µM
- TGI [44]: 1.17 µM
- TGI [45]: > 100 µM
- TGI [47]: > 100 µM
- TGI [48]: 3.03 µM
- TGI [52]: > 100 µM
- TGI [54]: 13.1 µM
- TGI [55]: 9.74 µM
- TGI [58]: 3.31 µM
- TGI [59]: 3.31 µM

SMILES: [O-]c1c2c(nn1-c1ccc(F)cc1)c1ccccc1c[n+]2Cc1ccccc1
- TGI [2]: 85.3 µM
- TGI [3]: 73.1 µM
- TGI [4]: 28 µM
- TGI [6]: 94.7 µM
- TGI [7]: 33.7 µM
- TGI [8]: 4.52 µM
- TGI [61]: 43.7 µM
- TGI [62]: 32.9 µM
- TGI [10]: 56.4 µM
- TGI [11]: 24.8 µM
- TGI [12]: 32.9 µM
- TGI [13]: 39.1 µM
- TGI [14]: 11.1 µM
- TGI [15]: 32.1 µM
- TGI [16]: 57.9 µM
- TGI [18]: 27.1 µM
- TGI [19]: 30.6 µM
- TGI [20]: 81.4 µM
- TGI [21]: 25 µM
- TGI [60]: 25.9 µM
- TGI [63]: 18.8 µM
- TGI [23]: 15.3 µM
- TGI [24]: 25.6 µM
- TGI [29]: 81.5 µM
- TGI [30]: 47.4 µM
- TGI [31]: 55.8 µM
- TGI [32]: 29.7 µM
- TGI [33]: 21.3 µM
- TGI [35]: 22.1 µM
- TGI [36]: 66.2 µM
- TGI [37]: 41.3 µM
- TGI [38]: 61.9 µM
- TGI [40]: 47.1 µM
- TGI [41]: 33.7 µM
- TGI [42]: 40.7 µM
- TGI [43]: 40.4 µM
- TGI [44]: 8.57 µM
- TGI [45]: 9.23 µM
- TGI [46]: 34 µM
- TGI [47]: 13.4 µM
- TGI [48]: 41.8 µM
- TGI [49]: 52.5 µM
- TGI [50]: > 100 µM
- TGI [51]: 60.5 µM
- TGI [64]: 35.4 µM
- TGI [52]: 41.9 µM
- TGI [53]: 48.7 µM
- TGI [55]: 83 µM
- TGI [56]: 33.4 µM
- TGI [57]: 30.3 µM
- TGI [58]: 14.2 µM
- TGI [59]: 54.9 µM
- TGI [65]: 45.2 µM
